According to ChEMBL document CHEMBL5649167, “The SUV4-20 inhibitor A-196 verifies a role for epigenetics in genomic integrity” (Nat Chem Biol, 2017):
Values belong to the compound of their own block, whether it stands above or below them.

How the values were obtained:
B-cell [1] = experiment: Induction of DNA repair in mouse B cells assessed as inhibition in ability of splenic cells to switch from IgM to IgG3 at 10 uM incubated for 4 days in the presence of LPS by flow cytometry analysis (Rvb=5.71%); assay type: functional; details: 96 h, time 4 day
Adenosine receptor A2a = Adenosine receptor A2a (Homo sapiens, UniProt P29274); experiment: Inhibition of human Adenosine receptor A2a assessed as inhibition constant
Chain of Adenosine receptor A2a (P29274 whole entry, the tested form may be a part): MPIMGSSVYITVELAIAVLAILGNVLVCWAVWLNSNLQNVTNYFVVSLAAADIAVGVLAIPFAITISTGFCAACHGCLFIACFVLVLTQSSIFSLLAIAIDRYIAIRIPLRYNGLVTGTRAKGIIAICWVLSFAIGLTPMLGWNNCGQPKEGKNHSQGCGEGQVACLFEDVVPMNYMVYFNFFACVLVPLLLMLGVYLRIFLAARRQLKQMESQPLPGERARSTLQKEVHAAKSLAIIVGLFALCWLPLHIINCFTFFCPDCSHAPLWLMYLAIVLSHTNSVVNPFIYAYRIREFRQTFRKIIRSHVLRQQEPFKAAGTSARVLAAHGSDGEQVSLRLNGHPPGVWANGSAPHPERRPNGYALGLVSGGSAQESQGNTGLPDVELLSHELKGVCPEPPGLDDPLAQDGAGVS

[2] = target: Histone-lysine N-methyltransferase KMT5B (Homo sapiens, UniProt Q4FZB7); experiment: Inhibition of recombinant human 6His-(Tev)-G-SUV420H1 (69 to 335 residues) using Biotin-tagged H4K20me1 and [3H-SAM] as substrate incubated for 2 hrs by scintillation proximity assay
Chain of Histone-lysine N-methyltransferase KMT5B (Q4FZB7 whole entry, the tested form may be a part): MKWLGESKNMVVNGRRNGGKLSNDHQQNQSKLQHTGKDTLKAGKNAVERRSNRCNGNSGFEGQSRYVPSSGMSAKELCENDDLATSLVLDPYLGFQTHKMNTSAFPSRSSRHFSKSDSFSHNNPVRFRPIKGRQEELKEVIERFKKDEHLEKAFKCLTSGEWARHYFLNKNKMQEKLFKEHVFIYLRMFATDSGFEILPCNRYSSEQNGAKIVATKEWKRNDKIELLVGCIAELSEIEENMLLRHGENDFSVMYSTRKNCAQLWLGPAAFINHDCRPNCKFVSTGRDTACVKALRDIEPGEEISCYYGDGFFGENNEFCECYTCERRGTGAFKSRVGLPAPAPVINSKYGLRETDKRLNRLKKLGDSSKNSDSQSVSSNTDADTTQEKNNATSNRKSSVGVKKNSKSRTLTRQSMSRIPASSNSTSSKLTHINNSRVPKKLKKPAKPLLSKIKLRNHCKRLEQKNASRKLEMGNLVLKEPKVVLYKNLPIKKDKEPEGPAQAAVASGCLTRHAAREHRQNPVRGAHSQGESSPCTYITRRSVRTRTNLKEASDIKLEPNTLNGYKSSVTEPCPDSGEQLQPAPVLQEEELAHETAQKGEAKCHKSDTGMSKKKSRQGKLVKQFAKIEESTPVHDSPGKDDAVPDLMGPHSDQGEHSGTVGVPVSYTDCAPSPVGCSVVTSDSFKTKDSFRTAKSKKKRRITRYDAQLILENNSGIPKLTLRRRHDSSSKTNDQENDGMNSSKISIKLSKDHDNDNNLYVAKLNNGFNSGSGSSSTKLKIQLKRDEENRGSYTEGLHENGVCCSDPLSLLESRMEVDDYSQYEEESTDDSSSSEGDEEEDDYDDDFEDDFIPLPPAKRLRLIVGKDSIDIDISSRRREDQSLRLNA

[3] = target: Histone-lysine N-methyltransferase KMT5C (Homo sapiens, UniProt Q86Y97); experiment: Inhibition of human SUV420H2 using Biotin-tagged H4K20me1 and [3H-SAM] as substrate incubated for 2 hrs by scintillation proximity assay
Chain of Histone-lysine N-methyltransferase KMT5C (Q86Y97 whole entry): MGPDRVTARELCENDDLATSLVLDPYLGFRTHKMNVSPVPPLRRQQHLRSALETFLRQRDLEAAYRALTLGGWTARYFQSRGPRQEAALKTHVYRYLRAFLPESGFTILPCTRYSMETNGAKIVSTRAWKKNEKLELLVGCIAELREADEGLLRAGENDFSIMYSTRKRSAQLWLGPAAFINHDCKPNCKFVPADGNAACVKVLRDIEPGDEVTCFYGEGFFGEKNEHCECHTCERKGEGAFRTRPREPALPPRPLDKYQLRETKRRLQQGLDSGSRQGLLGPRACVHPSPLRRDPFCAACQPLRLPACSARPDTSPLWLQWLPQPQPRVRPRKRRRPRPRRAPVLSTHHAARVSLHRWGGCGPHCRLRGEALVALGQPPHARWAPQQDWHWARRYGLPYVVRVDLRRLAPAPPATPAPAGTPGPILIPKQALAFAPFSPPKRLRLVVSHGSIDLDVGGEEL

Substance-K receptor = target: T1, Substance-K receptor (Homo sapiens, UniProt P21452); experiment: Inhibition of human Substance-K receptor assessed as inhibition constant
T1 sequence (P21452 whole entry): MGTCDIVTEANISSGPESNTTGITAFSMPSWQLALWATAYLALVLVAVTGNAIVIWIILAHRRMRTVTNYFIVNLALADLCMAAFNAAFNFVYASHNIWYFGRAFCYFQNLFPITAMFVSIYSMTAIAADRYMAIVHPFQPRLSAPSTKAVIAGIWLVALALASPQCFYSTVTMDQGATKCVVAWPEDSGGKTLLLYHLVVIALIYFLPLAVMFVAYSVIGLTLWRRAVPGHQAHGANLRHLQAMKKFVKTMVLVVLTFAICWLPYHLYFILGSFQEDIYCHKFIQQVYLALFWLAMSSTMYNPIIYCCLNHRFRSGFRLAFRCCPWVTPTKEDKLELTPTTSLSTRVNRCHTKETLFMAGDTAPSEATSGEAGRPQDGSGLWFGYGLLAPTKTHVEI

PC-3 = experiment: Antiproliferative activity against human PC-3 cells assessed as change in number of nuclei incubated for 72 hrs by Hoechst staining based high content microscopy; assay type: functional, cell-based; details: PC-3, 72 h
[4] = target: KV channel (voltage-gated potassium channel) (Homo sapiens, UniProt O43525+O43526+O95259+P16389+P17658+P22001+P22459+P22460+P48547+P51787+P56696+Q03721+Q09470+Q12809+Q14003+Q14721+Q16322+Q6PIU1+Q8NCM2+Q8TAE7+Q8TDN1+Q8TDN2+Q92953+Q96KK3+Q96L42+Q96PR1+Q96RP8+Q9BQ31+Q9H252+Q9H3M0+Q9NR82+Q9NS40+Q9NSA2+Q9NZV8+Q9UIX4+Q9UJ96+Q9UK17+Q9ULD8+Q9ULS6+Q9UQ05); experiment: Inhibition of human KV channel at 10 uM relative to control; assay type: protein assay
[5] = target: Kappa-type opioid receptor (Homo sapiens, UniProt P41145); experiment: Inhibition of human Kappa-type opioid receptor assessed as inhibition constant
Chain of Kappa-type opioid receptor (P41145 whole entry): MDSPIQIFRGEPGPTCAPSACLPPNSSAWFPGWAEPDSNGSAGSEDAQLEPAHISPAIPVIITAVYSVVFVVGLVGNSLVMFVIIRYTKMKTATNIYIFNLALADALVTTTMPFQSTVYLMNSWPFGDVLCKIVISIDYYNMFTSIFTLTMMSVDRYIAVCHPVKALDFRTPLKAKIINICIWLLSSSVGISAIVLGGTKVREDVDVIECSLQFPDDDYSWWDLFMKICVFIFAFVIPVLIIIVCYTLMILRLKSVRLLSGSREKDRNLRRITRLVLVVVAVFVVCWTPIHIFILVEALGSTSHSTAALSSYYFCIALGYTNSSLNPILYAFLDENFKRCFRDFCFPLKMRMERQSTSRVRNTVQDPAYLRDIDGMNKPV

[6] = target: L-type calcium channel (verapamil binding site) (Homo sapiens, UniProt O60840+Q01668+Q13698+Q13936); experiment: Inhibition of human L-type calcium channel verapamil binding site at 10 uM relative to control; assay type: protein assay
HFF [7] = experiment: Cytotoxicity against HFF cells assessed as cell viability upto 12.5 uM incubated for 48 hrs; assay type: toxicity, cell-based; details: human
B-cell [8] = experiment: Induction of DNA repair in mouse B cells assessed as inhibition in ability of splenic cells to switch from IgM to IgG3 at 1 uM incubated for 4 days in the presence of LPS by flow cytometry analysis (Rvb=5.71%); assay type: functional; details: 96 h, time 4 day
B-cell [9] = experiment: Induction of DNA repair in mouse B cells assessed as inhibition in ability of splenic cells to switch from IgM to IgG1 at 10 uM incubated for 2 days in the presence of LPS by flow cytometry analysis (Rvb=9.59%); assay type: functional; details: 48 h, time 2 day
Adenosine receptor A3 = target: T2, Adenosine receptor A3 (Homo sapiens, UniProt P0DMS8); experiment: Inhibition of human Adenosine receptor A3 assessed as inhibition constant
T2 sequence (P0DMS8 whole entry): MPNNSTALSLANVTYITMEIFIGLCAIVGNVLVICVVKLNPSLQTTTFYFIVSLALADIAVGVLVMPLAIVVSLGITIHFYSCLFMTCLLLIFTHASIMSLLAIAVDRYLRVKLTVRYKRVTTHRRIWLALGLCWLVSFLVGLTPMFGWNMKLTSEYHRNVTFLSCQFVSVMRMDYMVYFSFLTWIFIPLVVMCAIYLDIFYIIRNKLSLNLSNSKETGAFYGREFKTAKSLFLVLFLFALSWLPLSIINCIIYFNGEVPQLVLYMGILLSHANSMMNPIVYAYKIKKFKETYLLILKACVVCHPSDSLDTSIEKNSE

B-cell [10] = experiment: Induction of DNA repair in mouse B cells assessed as inhibition in ability of splenic cells to switch from IgM to IgE at 1 uM incubated for 3 days in the presence of LPS plus IL-4 by flow cytometry analysis (Rvb=1.97%); assay type: functional; details: 72 h, time 3 day
[11] = Inhibition of H4K20me3 in human PC-3 cells assessed as decrease in methylation level incubated for 72 hrs by Hoechst staining based high content microscopy; assay type: functional, cell-based; details: PC-3, 72 h
U2OS = experiment: Antiproliferative activity against human U2OS cells assessed as change in number of nuclei incubated for 72 hrs by Hoechst staining based high content microscopy; assay type: functional, cell-based
[12] = Inhibition of H4K20me3 in human U2OS cells assessed as decrease in methylation level incubated for 72 hrs by Hoechst staining based high content microscopy; assay type: functional, cell-based
[13] = Inhibition of H4K20me1 in human U2OS cells assessed as increase in methylation level incubated for 72 hrs by Hoechst staining based high content microscopy; assay type: functional, cell-based
[14] = Inhibition of H4K20me3 in human U2OS cells incubated for 48 hrs by Western blotting analysis; assay type: functional, cell-based
[15] = Inhibition of H4K20me1 in human PC-3 cells assessed as increase in methylation level incubated for 72 hrs by Hoechst staining based high content microscopy; assay type: functional, cell-based; details: PC-3, 72 h
[16] = Inhibition of human 5-HT3 receptor expressed in HEK293T cells at 10 uM relative to control; details: HEK-293T
[17] = Inhibition of H4K20me3 in human LNCaP cells incubated for 48 hrs by Western blotting analysis; assay type: functional, cell-based
[18] = target: Delta-type opioid receptor (Homo sapiens, UniProt P41143); experiment: Inhibition of human Delta-type opioid receptor assessed as inhibition constant
Chain of Delta-type opioid receptor (P41143 whole entry): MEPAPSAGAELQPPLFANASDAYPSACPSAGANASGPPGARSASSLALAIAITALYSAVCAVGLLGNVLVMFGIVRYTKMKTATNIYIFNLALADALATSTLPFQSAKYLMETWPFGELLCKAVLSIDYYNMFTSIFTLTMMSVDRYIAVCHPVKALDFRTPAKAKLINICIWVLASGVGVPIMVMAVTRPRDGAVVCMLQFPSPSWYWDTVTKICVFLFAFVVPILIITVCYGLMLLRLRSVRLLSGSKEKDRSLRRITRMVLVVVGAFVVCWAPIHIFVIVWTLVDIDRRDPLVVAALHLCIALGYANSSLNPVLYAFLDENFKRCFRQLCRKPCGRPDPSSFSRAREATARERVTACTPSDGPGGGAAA

[19] = Inhibition of H4K20me2 in human LNCaP cells incubated for 48 hrs by Western blotting analysis; assay type: functional, cell-based
Adenosine receptor A1 = target: T3, Adenosine receptor A1 (Homo sapiens, UniProt P30542); experiment: Inhibition of human Adenosine receptor A1 assessed as inhibition constant
T3 sequence (P30542 whole entry): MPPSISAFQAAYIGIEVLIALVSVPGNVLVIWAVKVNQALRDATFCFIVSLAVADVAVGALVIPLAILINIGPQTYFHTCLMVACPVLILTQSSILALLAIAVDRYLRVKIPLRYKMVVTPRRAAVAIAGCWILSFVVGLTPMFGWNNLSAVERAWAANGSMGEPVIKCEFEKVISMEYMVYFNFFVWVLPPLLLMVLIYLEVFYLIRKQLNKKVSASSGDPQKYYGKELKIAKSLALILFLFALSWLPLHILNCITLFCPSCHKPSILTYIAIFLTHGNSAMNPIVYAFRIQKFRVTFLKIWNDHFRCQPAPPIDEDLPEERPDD

B-cell [20] = experiment: Induction of DNA repair in mouse B cells assessed as inhibition in ability of splenic cells to switch from IgM to IgG1 at 1 uM incubated for 2 days in the presence of LPS by flow cytometry analysis (Rvb=9.59%); assay type: functional; details: 48 h, time 2 day
[21] = Inhibition of H4K20me1 in human LNCaP cells incubated for 48 hrs by Western blotting analysis; assay type: functional, cell-based
[22] = Inhibition of H4K20me1 in human U2OS cells incubated for 48 hrs by Western blotting analysis; assay type: functional, cell-based
HFF [23] = experiment: Cytotoxicity against HFF cells assessed as cell viability at 1.5 to 100 uM incubated after 72 hrs; assay type: toxicity, cell-based; details: human, dose 1.5-100 µM
MEF = experiment: Antiproliferative activity against mouse MEF cells assessed as loss of pericentric H4K20me3 at 10 uM incubated for 3 days by immunofluorescence analysis relative to control; assay type: functional; details: time 3 day
[24] = Inhibition of H4K20me2 in human U2OS cells incubated for 48 hrs by Western blotting analysis; assay type: functional, cell-based
B-cell [25] = experiment: Induction of DNA repair in mouse B cells assessed as inhibition in ability of splenic cells to switch from IgM to IgE at 10 uM incubated for 3 days in the presence of LPS plus IL-4 by flow cytometry analysis (Rvb=1.97%); assay type: functional; details: 72 h, time 3 day
[26] = Inhibition of human GABA-gated Cl- channel assessed as inhibition constant

Ki (Adenosine receptor A2a): 28 nM
IC50 [2]: 25 nM
IC50 [3]: 144 nM
Ki (Substance-K receptor): 4100 nM
IC50 (PC-3): > 20000 nM
inhibition at 10 µM [4]: -18%
Ki [5]: > 10000 nM
inhibition at 10 µM [6]: -4%
Ki (Adenosine receptor A3): 2000 nM
IC50 [11]: 521 nM
IC50 (U2OS): > 20000 nM
IC50 [12]: 502 nM
IC50 [13]: 1910 nM
IC50 [14]: 370 nM
IC50 [15]: 686 nM
IC50 [17]: 211 nM
Ki [18]: 9000 nM
IC50 [19]: 511 nM
Ki (Adenosine receptor A1): 21 nM
IC50 [21]: 799 nM
IC50 [22]: 736 nM
IC50 [24]: 262 nM
Ki [26]: 1800 nM
Compound: Clc1cc2c(NC3CCCC3)nnc(-c3ccncc3)c2cc1Cl
inhibition at 10 µM (B-cell [1]): 3.85%
Activity (HFF [7]): Non-Toxic
inhibition at 1 µM (B-cell [8]): 3.79%
inhibition at 10 µM (B-cell [9]): 3.68%
inhibition at 1 µM (B-cell [10]): 1.47%
inhibition at 10 µM [16]: 32%
inhibition at 1 µM (B-cell [20]): 5.87%
Activity (HFF [23]): Non-Toxic
Activity (MEF): 97%
inhibition at 10 µM (B-cell [25]): 0.73%

IC50 [2]: 5900 nM
IC50 [3]: 4800 nM
Compound: Clc1ccc2c(NC3CCCC3)ccnc2c1
